Results: patent US10722484B2, “Methods of cancer treatment” (K-Gen, Inc., priority 2016, dated 2020)
Like-named read-outs stand apart in the source and are kept apart here.

Columns and labels:
[1] = system: A549 lung cancer cell line; test: Combination viability/proliferation assays (384-well IC50 ratio, 96-well MacSynergy II); assay type: cell-based; conditions: for Ratio ([…] DMSO IC50/combination IC50) / Combination in A549: K101A (synergism/antagonism) / Combination in A549: K101E (synergism/antagonism) / Combination in A549: K102 (synergism/antagonism): A549; for effect in combination with the PKC activator compounds in inhibiting the growth of A549 cells: PKC activator compounds (K101A, K101E, K102); for Combination in A549: K101A (synergism/antagonism): agent assayed in combination with K101A; for Combination in A549: K101A (synergism/antagonism) / Combination in A549: K102 (synergism/antagonism): * 2-3 concentrations, # full concentration ranges; for Combination in A549: K101E (synergism/antagonism): agent assayed in combination with K101E; for Combination in A549: K102 (synergism/antagonism): agent assayed in combination with K102
Method: (§1) A 96-well MacSynergy II format for combination test was also used. […] The analysis was done with the SQRT(Data) scale and the four parameter Hill curve was fitted using XLfit5.1 (the MacSynergy II Excel Spreadsheet) for the inhibition data. Synergy (positive number) or Antagonism (negative number) volumes were calculated. […] Three-dimensional MacSynergy II graphs were generated where positive values indicated synergism and negative values indicated antagonism.

Panc2.13 = test: Combination viability/proliferation assays; assay type: cell-based; conditions: for effect in combination with K101A: Panc2.13, K101A at 1 μM or at 0.67 μM; for Combination effect, Panc2.13: K101A: agent in combination with K101A
Method: as §1

[2] = system: HL-60 human promyelocytic leukemia cells; test: Combination viability/proliferation assays
Method: Briefly, cells at density of 1,000-10,000 cells/well in 96-well plates or 200-1600 cells/well in 384-well plates were seeded and incubated at 37° C. for 24 hours before addition of compounds. A series of 9 different concentrations of compound stocks (500×) were prepared by 3-fold serial dilutions in DMSO. […] After 96 hours of incubation, 35 μL or 50 μL of CellTiter Glo reagent (Promega) was added to each well and luminescence was measured after 10 minutes using EnVision (PerkinElmer). Luminescence from cells treated with DMSO alone was set as Max and % of inhibition was calculated as follows: Inhibition %=(Max-Sample value)/Max*100. Data were analyzed using XLfit software (ID Business Solutions Ltd.) or GraphPad software and IC50, relative IC50, and % of top inhibition were calculated.
The top concentration for the tested PKC activator compound was set at roughly the IC50 when the same testing compound was used as a single agent assayed in the same cell line. The next dose was either 3-fold or 10-fold dilution from the top concentration.

AsPC-1 = test: Proliferation assay (CellTiter Glo); assay type: cell-based; conditions: 96 hours
Method: (§2) The dose range for most compounds was 4.6 nM-30 μM. The dose ranges for some compounds were adjusted downward to 0.46 nM-3 μM or 0.08 nM-0.5 μM or 0.03 nM-0.2 μM. […] The results are shown in Tables 3-6 for pancreatic cancer, lung cancer, colon/gastric cancer, and leukemia.

CCRF-CEM = test: Proliferation assay (CellTiter Glo); assay type: cell-based; conditions: 96 hours
Method: as §2

Pan2.03 = test: Proliferation assay (CellTiter Glo); assay type: cell-based; conditions: 96 hours
Method: as §2

Pan2.13 = test: Proliferation assay (CellTiter Glo); assay type: cell-based; conditions: 96 hours
Method: as §2

BxPC-3 = test: Proliferation assay (CellTiter Glo); assay type: cell-based; conditions: BxPC-3 (RAS WT); 96 hours
Method: as §2
(§3) Other cancer cell lines having wild-type K-RAS status and K-RAS mutation at G12 were also screened using the PKC activator compounds. […] K104 was tested in a range of 0.03 nM-0.2 μM. […] The dose ranges were adjusted downward to 0.46 nM-3 μM for K102 and 0.08 nM-0.5 μM for K103 for some cell lines. The results of the screening of cancer cells lines with wild-type K-RAS status and K-RAS mutations at the G12 positions are presented in Table 7.

Colo205 = test: Proliferation assay (CellTiter Glo); assay type: cell-based; conditions: Colo205 (RAS WT); 96 hours
Method: as §2, §3

H1915 = test: Proliferation assay (CellTiter Glo); assay type: cell-based; conditions: H1915 (RAS WT); 96 hours
Method: as §2, §3

H838 = test: Proliferation assay (CellTiter Glo); assay type: cell-based; conditions: H838 (RAS WT); 96 hours
Method: as §2, §3

HT29 = test: Proliferation assay (CellTiter Glo); assay type: cell-based; conditions: HT29 (RAS WT); 96 hours
Method: as §2, §3

RPMI8226 = test: Proliferation assay (CellTiter Glo); assay type: cell-based; conditions: RPM18226; 96 hours
Method: as §2, §3

SW900 = test: Proliferation assay (CellTiter Glo); assay type: cell-based; conditions: SW900 (K-RAS: G12V); 96 hours
Method: as §2, §3

[3] = in combination with 0.0002 μM K102, NC: no change
[4] = in combination with 0.002 μM K102, NC: no change
[5] = in combination with 0.005 μM K101A, NC: no change
[6] = in combination with 0.02 μM K102, NC: no change
[7] = in combination with 0.05 μM K101A, NC: no change
[8] = in combination with 0.5 μM K101A, ratio >2 synergistic, <0.5 antagonistic, NC: no change
[9] = in combination with 0.013 μM K102
[10] = in combination with 0.04 μM K102
[11] = in combination with 0.33 uM K101A

O=C(c1cc(Cc2n[nH]c(=O)c3ccccc23)ccc1F)N1CCN(C(=O)C2CC2)CC1 [Olaparib]
Ratio ([…] DMSO IC50/combination IC50) [1, 3]: 0.78
Ratio ([…] DMSO IC50/combination IC50) [1, 4]: 1.43
Ratio ([…] DMSO IC50/combination IC50) [1, 5]: 0.91
Ratio ([…] DMSO IC50/combination IC50) [1, 6]: 2.74
Ratio ([…] DMSO IC50/combination IC50) ([1]; in combination with 0.03 μM K101E (footnote, Olaparib)): 1.15
Ratio ([…] DMSO IC50/combination IC50) [1, 7]: 1.38
Ratio ([…] DMSO IC50/combination IC50) ([1]; in combination with 0.3 μM K101E (footnote, Olaparib)): 1.30
Ratio ([…] DMSO IC50/combination IC50) [1, 8]: 2.76
Ratio ([…] DMSO IC50/combination IC50) ([1]; in combination with 3 μM K101E (footnote, Olaparib)): 1.97
effect in combination with the PKC activator compounds in inhibiting the growth of A549 cells [1]: synergistic effect
Combination in A549: K101A (synergism/antagonism) [1]: Synergism
Combination in A549: K101E (synergism/antagonism) [1]: None
Combination in A549: K102 (synergism/antagonism) [1]: Synergism
effect in combination with K101A (Panc2.13): strong synergy
Combination effect, Panc2.13: K101A (Panc2.13): Synergism

Cc1nc(Nc2ncc(C(=O)Nc3c(C)cccc3Cl)s2)cc(N2CCN(CCO)CC2)n1 [Dasatinib]
increase of potency in inhibiting growth ([2]; combined with K101A (0.3 μM) or K102 (0.005 μM)): more than 10 fold

O=C(CCCCCCC(=O)Nc1ccccc1)NO [SAHA, suberoylanilide hydroxamic acid]
Combination in A549: K101A (synergism/antagonism) [1]: Antagonism (minor)
Combination in A549: K102 (synergism/antagonism) [1]: Antagonism (minor)
effect in combination with K101A and K102 [2]: moderate or minor synergistic/additive effect

CC(=O)OC12CC(C)C3(O)C(C=C(COC(=O)CC(N)C(=O)[O-])CC4(O)C(=O)C(C)=CC43)C1C2(C)C.[Na+] (stereo not shown) [Compound K101I]
EC50 (AsPC-1; AsPC-1 (K-RAS: G12D), absolute EC50, read-out: Ab EC50): > 30 µM
Top Inhibition % (AsPC-1; AsPC-1, % of top inhibition): 25.0%
EC50 (AsPC-1; AsPC-1, relative EC50, read-out: Re EC50): 6.64 µM
EC50 (CCRF-CEM; CCRF-CEM (K-RAS: G12D), absolute EC50, read-out: Ab EC50): > 30 µM
Top Inhibition % (CCRF-CEM; CCRF-CEM, % of top inhibition): 37.4%
EC50 (CCRF-CEM; CCRF-CEM, relative EC50, read-out: Re EC50): 1.51 µM
EC50 (Pan2.03; Pan2.03 (K-RAS: G12D), absolute EC50, read-out: Ab EC50): > 30 µM
Top Inhibition % (Pan2.03; Pan2.03, % of top inhibition): 26.3%
EC50 (Pan2.03; Pan2.03, relative EC50, read-out: Re EC50): 6.04 µM
EC50 (Pan2.13; Pan2.13 (K-RAS: Q61H), absolute EC50, read-out: Ab EC50): > 30 µM
Top Inhibition % (Pan2.13; Pan2.13, % of top inhibition): 48.3%
EC50 (Pan2.13; Pan2.13, relative EC50, read-out: Re EC50): 0.16 µM
Top Inhibition % (BxPC-3): 38.12%
Top Inhibition % (Colo205): 82.2%
Top Inhibition % (H1915): 16.4%
Top Inhibition % (H838): 29.3%
Top Inhibition % (HT29): 11.8%
Top Inhibition % (RPMI8226): 17.60%
Top Inhibition % (SW900): 10.8%

NC1(c2ccc(-c3nc4ccn5c(=O)[nH]nc5c4cc3-c3ccccc3)cc2)CCC1 [MK2206, 8-[4-(1-aminocyclobutyl)phenyl]-9-phenyl-2H-[1,2,4]triazolo[3,4-f][1,6]naphthyridin-3-one]
Ratio ([…] DMSO IC50/combination IC50) [1, 3]: 0.81
Ratio ([…] DMSO IC50/combination IC50) [1, 4]: 3.13
Ratio ([…] DMSO IC50/combination IC50) [1, 5]: 0.68
Ratio ([…] DMSO IC50/combination IC50) [1, 6]: 5.57
Ratio ([…] DMSO IC50/combination IC50) [1, 7]: 2.13
Ratio ([…] DMSO IC50/combination IC50) [1, 8]: 6.03
effect in combination with the PKC activator compounds in inhibiting the growth of A549 cells [1]: strong synergy
Combination in A549: K101A (synergism/antagonism) [1]: Synergism (strong)
Combination in A549: K101E (synergism/antagonism) [1]: Synergism
Combination in A549: K102 (synergism/antagonism) [1]: Synergism (strong)
Combination effect, Panc2.13: K101A (Panc2.13): None

Cc1sc2c(c1C)C(c1ccc(Cl)cc1)=NC(CC(=O)OC(C)(C)C)c1nnc(C)n1-2 (racemic) [(±)-JQ1, tert-butyl 2-(4-(4-chlorophenyl)-2,3,9-triMethyl-6H-thieno[3,2-f][1,2,4]triazolo[4,3-a][1,4]diazepin-6-yl)acetate]
Ratio ([…] DMSO IC50/combination IC50) [1, 9]: 0.55
Ratio ([…] DMSO IC50/combination IC50) [1, 10]: 0.57
Ratio ([…] DMSO IC50/combination IC50) [1, 11]: 0.27
Ratio ([…] DMSO IC50/combination IC50) ([1]; in combination with 1 uM K101A): 0.09
effect in combination with K101A or K102 in inhibiting the growth of A549 cells [1]: strong antagonist effect
Combination in A549: K101A (synergism/antagonism) [1]: Antagonism
Combination in A549: K102 (synergism/antagonism) [1]: Antagonism
effect in combination with K101A and K102 [2]: moderate or minor synergistic/additive effect

O=C1[C@H](Cc2ccc(O)cc2)N2C(=O)CCN(C(=O)NCc3ccccc3)[C@H]2CN1Cc1cccc2ccccc12 [ICG-001, (6S,9aS)-Hexahydro-6-[(4-hydroxyphenyl)methyl]-8-(1-naphthalenylmethyl)-4,7-dioxo-N-(phenylmethyl)-2H-pyrazino[1,2-a]pyrimidine-1(6H)-carboxamide]
Ratio ([…] DMSO IC50/combination IC50) [1, 9]: 0.96
Ratio ([…] DMSO IC50/combination IC50) [1, 10]: 1.10
Ratio ([…] DMSO IC50/combination IC50) [1, 11]: 1.05
Ratio ([…] DMSO IC50/combination IC50) ([1]; in combination with 1 uM K101A): 1.10
effect in combination with K101A or K102 in inhibiting the growth of A549 cells [1]: did not show synergy
effect in combination with the PKC activator compounds in inhibiting the growth of A549 cells [1]: insignificant synergism or antagonism
Combination in A549: K101A (synergism/antagonism) [1]: None
Combination in A549: K102 (synergism/antagonism) [1]: None
effect in combination with K101A (Panc2.13): strong synergy
Combination effect, Panc2.13: K101A (Panc2.13): Synergism
